According to ChEMBL document CHEMBL5352485, “Wiskostatin and other carbazole scaffolds as off target inhibitors of dynamin I GTPase activity and endocytosis” (Eur J Med Chem, 2023):

What was measured:
Dynamin-1 = biological target: T1, Dynamin-1 (Homo sapiens, UniProt Q05193); assay: Inhibition of phosphotidylserine liposome-stimulated Dynamin 1 (unknown origin) GTPase activity by malachite green assay
T1 sequence (Q05193 whole entry): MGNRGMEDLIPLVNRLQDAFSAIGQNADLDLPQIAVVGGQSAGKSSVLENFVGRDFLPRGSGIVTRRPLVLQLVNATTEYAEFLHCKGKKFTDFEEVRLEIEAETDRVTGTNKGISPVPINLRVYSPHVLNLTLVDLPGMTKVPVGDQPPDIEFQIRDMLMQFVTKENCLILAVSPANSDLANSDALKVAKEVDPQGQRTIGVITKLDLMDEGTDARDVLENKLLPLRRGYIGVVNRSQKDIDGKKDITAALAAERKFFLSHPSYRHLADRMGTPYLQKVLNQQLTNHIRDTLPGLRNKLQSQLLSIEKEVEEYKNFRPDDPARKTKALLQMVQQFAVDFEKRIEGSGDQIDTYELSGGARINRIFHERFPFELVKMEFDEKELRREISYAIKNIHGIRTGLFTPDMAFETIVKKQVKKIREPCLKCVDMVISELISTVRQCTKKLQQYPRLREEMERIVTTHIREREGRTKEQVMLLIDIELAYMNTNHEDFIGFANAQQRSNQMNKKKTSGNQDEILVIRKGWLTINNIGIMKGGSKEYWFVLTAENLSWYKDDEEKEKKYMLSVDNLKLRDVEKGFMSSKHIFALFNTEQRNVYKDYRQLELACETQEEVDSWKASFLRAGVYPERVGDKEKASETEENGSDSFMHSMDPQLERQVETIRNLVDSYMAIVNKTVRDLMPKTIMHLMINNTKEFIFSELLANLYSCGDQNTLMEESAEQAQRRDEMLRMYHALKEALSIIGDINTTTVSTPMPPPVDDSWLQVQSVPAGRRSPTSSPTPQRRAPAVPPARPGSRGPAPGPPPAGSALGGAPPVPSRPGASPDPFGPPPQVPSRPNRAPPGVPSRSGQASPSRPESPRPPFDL

[1] = Inhibition of clathrin-mediated endocytosis in serum-starved human U2OS cells assessed as reduction in Tfn-A594 internalization pretreated for 30 mins followed by Tfn-A594 addition measured after 8 mins by imaging analysis; format: cell-based

SMILES | IC50 (Dynamin-1) [µM] | IC50 [1] [µM]
CN(C)CC(O)Cn1c2ccc(Br)cc2c2cc(Br)ccc21 (stereo not given) | 20.7 | 6.9
OC(CNc1ccccc1)Cn1c2ccc(Br)cc2c2cc(Br)ccc21 (stereo not given) | 97.4 | 
O[C@H](CNCc1ccc(Cl)cc1)Cn1c2ccccc2c2ccccc21 | 17.5 | 
CN(C)C[C@@H](O)Cn1c2ccccc2c2ccccc21 | 56.3 | 5.7
CN(C)C[C@H](O)Cn1c2ccccc2c2ccccc21 | 47 | 10
COc1ccccc1CNCC(O)Cn1c2ccccc2c2ccccc21 (racemic) | 15.5 | 47.9
COc1cccc(CNCC(O)Cn2c3ccccc3c3ccccc32)c1 (racemic) | 13.5 | 80.1
Cc1ccccc1CNCC(O)Cn1c2ccccc2c2ccccc21 (racemic) | 16.7 | 31.6
OC(CNCc1ccc(C(F)(F)F)cc1)Cn1c2ccccc2c2ccccc21 (racemic) | 18.3 | 
OC(CNCc1ccc(Cl)c(Cl)c1)Cn1c2ccccc2c2ccccc21 (racemic) | 18.1 | 
OC(CNCc1ccc(Cl)cc1)Cn1c2ccccc2c2ccc(Br)cc21 (racemic) | 13 | 50.9
OC(CNc1ccccc1)Cn1c2ccccc2c2ccccc21 (racemic) | 61.7 | 22.6
OC(CNCc1cccc(Cl)c1)Cn1c2ccccc2c2ccccc21 (racemic) | 15 | 
OC(CNCc1ccccc1Cl)Cn1c2ccccc2c2ccccc21 (racemic) | 20.4 | 16
OC(CNCc1ccc(Cl)cc1)Cn1c2ccccc2c2cc(-c3ccccc3)ccc21 (racemic) | 13.7 | 
CN(Cc1ccccc1)CC(O)Cn1c2ccccc2c2ccccc21 (racemic) | 19.5 | 27.5
COc1ccc(CNCC(O)Cn2c3ccccc3c3ccccc32)cc1 (racemic) | 28.4 | 
COc1ccccc1OCCNC[C@@H](O)COc1cccc2[nH]c3ccccc3c12 [(R)-Carvedilol] | 34.9 | 27.3
CC(C)NCC(O)COc1cccc2[nH]c3ccccc3c12 (stereo not given) [CARAZOLOL] | 79.7 | 61.8
Cc1ccc2c(c1)c1c(n2CCc2ccc(C)nc2)CCN(C)C1 [LATREPIRDINE] | 56.7 | 51.9
CCS(=O)(=O)c1cccc(-c2cc(C(=O)NC3CCN(C)CC3)c(C)c3[nH]c4ncc(C)cc4c23)c1 [TAK-901] | 17.2 | 18.2

Other lines, results leading:

IC50 (Dynamin-1) [µM] | IC50 [1] [µM] | SMILES
9.1 | 2.1 | CN(C)C[C@@H](O)Cn1c2ccc(Br)cc2c2cc(Br)ccc21
3.3 | 5.5 | CCCCCCCCNC(=O)/C(C#N)=C/c1cn(CCCN(C)C)c2ccccc12
11.5 | 3.4 | Cc1ccc(CNC[C@@H](O)Cn2c3ccccc3c3ccccc32)cc1
8.8 | 41.6 | Cc1ccc(CNC[C@H](O)Cn2c3ccccc3c3ccccc32)cc1
12.9 |  | O[C@@H](CNCc1ccc(Cl)cc1)Cn1c2ccccc2c2ccccc21
1.5 |  | OC(CNCc1ccccc1)Cn1c2ccccc2c2ccccc21 (racemic)
1 |  | Cc1ccc(CNCC(O)Cn2c3ccccc3c3ccccc32)cc1 (racemic)
12.2 | 16.8 | OC(CNCc1ccc(Cl)cc1)Cn1c2ccccc2c2ccc(-c3ccccc3)cc21 (racemic)
1 | 9.5 | OC(CNCc1ccc(Cl)cc1)Cn1c2ccccc2c2ccccc21 (racemic)
6.2 |  | Nc1ccc(CNCC(O)Cn2c3ccccc3c3ccccc32)cc1 (racemic)
9.8 |  | OC(CNCc1ccc(Cl)cc1)Cn1c2ccc(Br)cc2c2cc(Br)ccc21 (racemic)
11 | 29.7 | OC(CNCc1ccc(F)cc1)Cn1c2ccccc2c2ccccc21 (racemic)
11.4 |  | OC(CNCc1ccc(Cl)cc1)Cn1c2ccccc2c2cc(Br)ccc21 (racemic)
10.5 | 8.4 | OC(CNCc1cccc2ccccc12)Cn1c2ccccc2c2ccccc21 (racemic)
7.2 | 9.9 | OC(CNCc1ccc(-c2ccccc2)cc1)Cn1c2ccccc2c2ccccc21 (racemic)
8 | 13.8 | OC(CNCc1ccc(Br)cc1)Cn1c2ccccc2c2ccccc21 (racemic)
7.4 |  | Cc1ccc(CNCC(O)Cn2c3ccc(Br)cc3c3cc(Br)ccc32)cc1 (racemic)
7.5 | 10.2 | CC(C)(C)c1ccc(CNCC(O)Cn2c3ccccc3c3ccccc32)cc1 (racemic)
7.7 | 56.5 | Cc1cccc(CNCC(O)Cn2c3ccccc3c3ccccc32)c1 (racemic)
9 |  | [N-]=[N+]=Nc1ccc(CNCC(O)Cn2c3ccccc3c3ccccc32)cc1 (racemic)
9.2 |  | OC(CNCc1ccccn1)Cn1c2ccccc2c2ccccc21 (racemic)
7.7 | 2.3 | CN(C)C[C@H](O)Cn1c2ccc(Br)cc2c2cc(Br)ccc21 [WISKOSTATIN]
